Assay results taken from patent publication US20150018311A1, “THERAPEUTIC BORON-CONTAINING COMPOUNDS” (priority 2012, published 2015).

How the values were obtained:
Assay in all cases: Growth in liquid media in presence of test compound
Format in all cases: cell-based
[1] = test system: Mycobacterium tuberculosis (H37Rv)
[2] = test system: Candida albicans (ATCC 90028)
[3] = test system: Escherichia coli (ATCC 25922)
[4] = test system: Pseudomonas aeruginosa (ATCC 27853)
[5] = test system: Staphylococcus aureus (ATCC 25923)
[6] = test system: Streptococcus pyogenes (ATCC 19615)

In the case of CC1(C)C2CC3OB(CC(Cc4ccccc4)NC(=O)C(N)CCCCN)OC3(C)C1C2 (stereo not drawn) [Compound 44], the “Growth in the presence of test compound, M. tuberculosis” value (“Growth … M. tuberculosis” for short) ([1]; 5 mg/L) is reported as “+”, the “Growth … M. tuberculosis” value ([1]; 50 mg/L) is reported as “+” and the “Growth … M. tuberculosis” value ([1]; 500 mg/L) is reported as “−”. For the same compound, the “Growth in the presence of test compound, C. albicans” value (“Growth in the presence … C. albicans” for short) ([2]; 5 mg/L) was “+”, the “Growth in the presence … C. albicans” value ([2]; 50 mg/L) was “+” and the “Growth in the presence … C. albicans” value ([2]; 500 mg/L) was “±”. For the same compound, the “Growth in the presence of test compound, E. coli” value (“Growth in the presence … E. coli” for short) ([3]; 5 mg/L) was “+”, the “Growth in the presence … E. coli” value ([3]; 50 mg/L) was “+” and the “Growth in the presence … E. coli” value ([3]; 500 mg/L) was “−”. The “Growth in the presence of test compound, P. aeruginosa” value (“Growth … P. aeruginosa” for short) ([4]; 5 mg/L) was “+”, the “Growth … P. aeruginosa” value ([4]; 50 mg/L) was “+” and the “Growth … P. aeruginosa” value ([4]; 500 mg/L) was “−”. The “Growth in the presence of test compound, S. aureus” value (shortened to “Growth in the presence … S. aureus”) ([5]; 5 mg/L) was “+”, the “Growth in the presence … S. aureus” value ([5]; 50 mg/L) was “+” and the “Growth in the presence … S. aureus” value ([5]; 500 mg/L) was “−”. The “Growth in the presence of test compound, S. pyogenes” value (“Growth in the presence … S. pyogenes” below) ([6]; 5 mg/L) was “+”, the “Growth in the presence … S. pyogenes” value ([6]; 50 mg/L) was “+” and the “Growth in the presence … S. pyogenes” value ([6]; 500 mg/L) was “−”.

In the case of CC1(C)C2CC3OB(C[C@@H](Cc4ccccc4)NC(=O)[C@H](Cc4ccccc4)NC(=O)[C@@H](N)Cc4ccccc4)O[C@]3(C)C1C2.Cl (stereo partly drawn) [Compound 45], the “Growth … M. tuberculosis” value ([1]; 5 mg/L) is reported as “+”, the “Growth … M. tuberculosis” value ([1]; 50 mg/L) is reported as “−” and the “Growth … M. tuberculosis” value ([1]; 500 mg/L) is reported as “+”. The “Growth in the presence … C. albicans” value ([2]; 5 mg/L) was “+”, the “Growth in the presence … C. albicans” value ([2]; 50 mg/L) was “+” and the “Growth in the presence … C. albicans” value ([2]; 500 mg/L) was “−”. For the same compound, the “Growth in the presence … E. coli” value ([3]; 5 mg/L) was “+”, the “Growth in the presence … E. coli” value ([3]; 50 mg/L) was “+” and the “Growth in the presence … E. coli” value ([3]; 500 mg/L) was “+”. For the same compound, the “Growth … P. aeruginosa” value ([4]; 5 mg/L) was “+”, the “Growth … P. aeruginosa” value ([4]; 50 mg/L) was “+” and the “Growth … P. aeruginosa” value ([4]; 500 mg/L) was “+”. The “Growth in the presence … S. aureus” value ([5]; 5 mg/L) was “+”, the “Growth in the presence … S. aureus” value ([5]; 50 mg/L) was “±” and the “Growth in the presence … S. aureus” value ([5]; 500 mg/L) was “+”. For the same compound, the “Growth in the presence … S. pyogenes” value ([6]; 5 mg/L) was “+”, the “Growth in the presence … S. pyogenes” value ([6]; 50 mg/L) was “+” and the “Growth in the presence … S. pyogenes” value ([6]; 500 mg/L) was “+”.

Cl.Cl.NCCCC[C@H](N)C(=O)NC[C@@H](Cc1ccc(F)cc1)B(O)O [Compound 46] was tested, and the “Growth … M. tuberculosis” value ([1]; 5 mg/L) was “−”, the “Growth … M. tuberculosis” value ([1]; 50 mg/L) was “−” and the “Growth … M. tuberculosis” value ([1]; 500 mg/L) was “−”. The “Growth in the presence … C. albicans” value ([2]; 5 mg/L) was “+”, the “Growth in the presence … C. albicans” value ([2]; 50 mg/L) was “+” and the “Growth in the presence … C. albicans” value ([2]; 500 mg/L) was “±”. For the same compound, the “Growth in the presence … E. coli” value ([3]; 5 mg/L) was “+”, the “Growth in the presence … E. coli” value ([3]; 50 mg/L) was “+” and the “Growth in the presence … E. coli” value ([3]; 500 mg/L) was “+”. The “Growth … P. aeruginosa” value ([4]; 5 mg/L) was “+”, the “Growth … P. aeruginosa” value ([4]; 50 mg/L) was “+” and the “Growth … P. aeruginosa” value ([4]; 500 mg/L) was “+”. The “Growth in the presence … S. aureus” value ([5]; 5 mg/L) was “+”, the “Growth in the presence … S. aureus” value ([5]; 50 mg/L) was “+” and the “Growth in the presence … S. aureus” value ([5]; 500 mg/L) was “+”. For the same compound, the “Growth in the presence … S. pyogenes” value ([6]; 5 mg/L) was “+”, the “Growth in the presence … S. pyogenes” value ([6]; 50 mg/L) was “+” and the “Growth in the presence … S. pyogenes” value ([6]; 500 mg/L) was “+”.

CC1(C)C2CC3OB(C(CNC(=O)C(N)CCCCN)Cc4ccc(OC(F)(F)F)cc4)OC3(C)C1C2.Cl.Cl (stereo not drawn) [Compound 47] was tested, and the “Growth … M. tuberculosis” value ([1]; 5 mg/L) was “+”, the “Growth … M. tuberculosis” value ([1]; 50 mg/L) was “−” and the “Growth … M. tuberculosis” value ([1]; 500 mg/L) was “−”. The “Growth in the presence … C. albicans” value ([2]; 5 mg/L) was “+”, the “Growth in the presence … C. albicans” value ([2]; 50 mg/L) was “+” and the “Growth in the presence … C. albicans” value ([2]; 500 mg/L) was “−”. The “Growth in the presence … E. coli” value ([3]; 5 mg/L) was “+”, the “Growth in the presence … E. coli” value ([3]; 50 mg/L) was “+” and the “Growth in the presence … E. coli” value ([3]; 500 mg/L) was “−”. For the same compound, the “Growth … P. aeruginosa” value ([4]; 5 mg/L) was “+”, the “Growth … P. aeruginosa” value ([4]; 50 mg/L) was “+” and the “Growth … P. aeruginosa” value ([4]; 500 mg/L) was “−”. The “Growth in the presence … S. aureus” value ([5]; 5 mg/L) was “+”, the “Growth in the presence … S. aureus” value ([5]; 50 mg/L) was “+” and the “Growth in the presence … S. aureus” value ([5]; 500 mg/L) was “−”. For the same compound, the “Growth in the presence … S. pyogenes” value ([6]; 5 mg/L) was “+”, the “Growth in the presence … S. pyogenes” value ([6]; 50 mg/L) was “+” and the “Growth in the presence … S. pyogenes” value ([6]; 500 mg/L) was “−”.

Cl.Cl.NCCCC[C@@H](N)C(=O)NC[C@@H](Cc1ccccc1)B(O)O [Compound 48] was tested, and the “Growth … M. tuberculosis” value ([1]; 5 mg/L) was “±”, the “Growth … M. tuberculosis” value ([1]; 50 mg/L) was “−” and the “Growth … M. tuberculosis” value ([1]; 500 mg/L) was “−”. The “Growth in the presence … C. albicans” value ([2]; 5 mg/L) was “+”, the “Growth in the presence … C. albicans” value ([2]; 50 mg/L) was “+” and the “Growth in the presence … C. albicans” value ([2]; 500 mg/L) was “+”. For the same compound, the “Growth in the presence … E. coli” value ([3]; 5 mg/L) was “+”, the “Growth in the presence … E. coli” value ([3]; 50 mg/L) was “+” and the “Growth in the presence … E. coli” value ([3]; 500 mg/L) was “+”. The “Growth … P. aeruginosa” value ([4]; 5 mg/L) was “+”, the “Growth … P. aeruginosa” value ([4]; 50 mg/L) was “+” and the “Growth … P. aeruginosa” value ([4]; 500 mg/L) was “+”. The “Growth in the presence … S. aureus” value ([5]; 5 mg/L) was “+”, the “Growth in the presence … S. aureus” value ([5]; 50 mg/L) was “+” and the “Growth in the presence … S. aureus” value ([5]; 500 mg/L) was “+”. For the same compound, the “Growth in the presence … S. pyogenes” value ([6]; 5 mg/L) was “+”, the “Growth in the presence … S. pyogenes” value ([6]; 50 mg/L) was “+” and the “Growth in the presence … S. pyogenes” value ([6]; 500 mg/L) was “+”.
